Consider one compound from patent US20160000796A1, “PHARMACEUTICAL COMPOSITION FOR USE IN PREVENTION OR TREATMENT OF CANCER” (priority 2013, published 2016).

Assay [1] relates to HTLV-1-producing cell line, MT2. Briefly: Cellular proliferation test (MTS assay), MT2. Format: cell-based. The method, then:
HTLV-1-producing cell lines, MT2 (transformant with HTLV-1, JCRB cell No: JCRB1210) and HUT102 (ATL-derived cell line, ATCC No: TIB-162), were used.
(§1) Each nucleoside analogue reverse transcriptase inhibitor was added to the medium for cells at a final concentration of 100 μM. Cells were seeded on a 96-well plate at a concentration of 1×10^4 cells/100 μL/well and cultured for 4 hours (Day 0), 48 hours (Day 2) or 96 hours (Day 4). A medium added DMSO (solvent control) alone was used as a control. Cellular proliferation was examined by MTS assay. Specifically, after the cells were cultured for a predetermined time, a reagent for cellular proliferation test, Aqueous One Solution Cell Proliferation (trade name, manufactured by Promega), was added to the cells. Four hours later, absorbance at 490 nm was measured. The cellular proliferation was represented by a ratio relative to that of the control (solvent control) on Day 0 that was regarded as 1.
Abacavir was added to MT2 and HUT102 used in Example 1 at a concentration of 0 μM (DMSO was added instead of abacavir), 10 μM, 25 μM, 50 μM, 75 μM or 100 μM. The cells were seeded on a 96-well plate at a concentration of 1×10^4 cells/100 μL/well and cultured for 4 hours or 48 hours. […]
(Formazan colour is commonly taken as a measure of viable cells.)

For assay [2], the system named is ED40515 (+) (non-virus-producing ATL cell line). Briefly: Cellular proliferation (MTS assay), ED40515 (+). Format: cell-based. The method, then: as §1
This example used HTLV-1-infected cell lines (non-virus-producing ATL cell lines): ED40515 (−), ED40515 (+), and ATL43T (all were provided by Prof. Michiyuki Maeda who produced the cells); and SYK-11L (+) (prepared in the laboratory of the inventors).
The six types of nucleoside analogue reverse transcriptase inhibitors as used in Example 1 were used and cellular proliferation was examined in the same manner as in Example 1. […]

Another assay has as its system HTLV-1. Particulars: Non Patent Literature 5; cited from earlier work.

On to `Nc1nc(NC2CC2)c2ncn([C@H]3C=C[C@@H](CO)C3)c2n1` [abacavir, (−)-(1S,4R)-4-[2-amino-6-(cyclopropylamino)-9H-purin-9-yl]-2-cyclopentene-1-methanol], for which, in assay [1] (100 μM, Day 0, 2, 4, compared among six NRTIs), the “cellular proliferation (ratio relative to solvent control on Day 0)” value is “most strongly suppressed”. Further, the “cellular proliferation, dose dependence” value was “suppressed cellular proliferation of both cell lines in a dose-dependent manner” in assay [1] (10, 25, 50, 75, 100 μM, 48 hours) and “suppressed cellular proliferation of all the cell lines in a dose-dependent manner” in assay [2] (10-100 μM, Day 0, 2, 4). In addition, the cellular proliferation result in assay [2] (100 μM) was “strong suppressive effect”. In the assay on HTLV-1, the anti-HTLV-1 effect result is listed as “anti-HTLV-1 effect”.
